According to ChEMBL document CHEMBL1201862, “PubChem BioAssay data set” (2004):
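Protocol summary: plate cells (96-well), add compound at 5 concentrations, incubate 48 h, interpolate endpoints linearly. At the GI50, growth is halved.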 The source made the active and inactive calls. Cut-off read from the data, not from the text of the source: active = GI50 up to about 1.1 µM and inactive = higher.

What was measured:
Test in all cases: DTP human tumour cell line panel, 48 h
SK-MEL-5 = tested on: SK-MEL-5
U-251 = tested on: U-251
SK-MEL-28 = tested on: SK-MEL-28
TK-10 = tested on: TK-10
SF-539 = tested on: SF-539
UACC-62 = tested on: UACC-62
LOX IMVI = tested on: LOX IMVI
EKVX = tested on: EKVX
HT-29 = tested on: HT-29
SW-620 = tested on: SW-620
Malme-3M = tested on: Malme-3M
IGROV-1 = tested on: IGROV-1
M14 = tested on: M14
NCI-H23 = tested on: NCI-H23
SF-295 = tested on: SF-295
RPMI-8226 = tested on: RPMI-8226
SK-OV-3 = tested on: SK-OV-3
RXF 393 = tested on: RXF 393

Compound | GI50 (SK-MEL-5) | GI50 (U-251) | GI50 (SK-MEL-28) | GI50 (TK-10) | GI50 (SF-539) | GI50 (UACC-62) | GI50 (LOX IMVI) | GI50 (EKVX) | GI50 (HT-29) | GI50 (SW-620) | GI50 (Malme-3M) | GI50 (IGROV-1) | GI50 (M14) | GI50 (NCI-H23) | GI50 (SF-295) | GI50 (RPMI-8226) | GI50 (SK-OV-3) | GI50 (RXF 393)
O=c1[nH]c2cc(-c3ccccc3)nc-2nn1-c1c(Cl)cc(Cl)cc1Cl | 25.9 µM (inactive) | 19.1 µM (inactive) | > 100 µM (inactive) | 28.6 µM (inactive) | 19.4 µM (inactive) | 17.5 µM (inactive) | 24.3 µM (inactive) | 24.9 µM (inactive) | 34.4 µM (inactive) | 33.7 µM (inactive) | 24.4 µM (inactive) | 38.5 µM (inactive) | 23.9 µM (inactive) | 24.9 µM (inactive) | 32.1 µM (inactive) | 24.3 µM (inactive) | 25.8 µM (inactive) | 
C[C@]12CC[C@H](OC(=O)Nc3ccccc3)CC1=CC[C@@H]1C2CC[C@]2(C)/C(=N/OC(=O)Nc3ccccc3)CCC12 (some centres undefined) | 5.35 µM (inactive) | 43.7 µM (inactive) |  | 6.61 µM (inactive) | > 100 µM (inactive) | > 100 µM (inactive) | 5.32 µM (inactive) | 30.1 µM (inactive) | 2.88 µM (inactive) | > 100 µM (inactive) | 1.72 µM (inactive) | 4.19 µM (inactive) | 12.5 µM (inactive) | > 100 µM (inactive) | 10 µM (inactive) | 5.57 µM (inactive) | > 100 µM (inactive) | 
COCCCNC(=O)C1C(=O)C(=O)N(CCCOC)C1=O (centres undefined) | > 100 µM (inactive) | > 100 µM (inactive) | > 100 µM (inactive) | > 100 µM (inactive) | > 100 µM (inactive) | > 100 µM (inactive) | > 100 µM (inactive) | > 100 µM (inactive) | > 100 µM (inactive) | > 100 µM (inactive) | > 100 µM (inactive) | > 100 µM (inactive) | > 100 µM (inactive) | > 100 µM (inactive) | > 100 µM (inactive) | > 100 µM (inactive) | > 100 µM (inactive) | 
COc1ccc2c(c1)[n+]([O-])c(-c1nc3ccccc3s1)c(N)[n+]2[O-] | 38.8 µM (inactive) | 78 µM (inactive) | 55.6 µM (inactive) |  | > 100 µM (inactive) |  |  | > 100 µM (inactive) | > 100 µM (inactive) | > 100 µM (inactive) | > 100 µM (inactive) | > 100 µM (inactive) | > 100 µM (inactive) | 64.9 µM (inactive) | > 100 µM (inactive) | 35.5 µM (inactive) | > 100 µM (inactive) | 
CCOC(=O)c1cc(/C=C/C(C)=C/C(=O)OC)oc1C |  | > 100 µM (inactive) | > 100 µM (inactive) | > 100 µM (inactive) | > 100 µM (inactive) | > 100 µM (inactive) | > 100 µM (inactive) | > 100 µM (inactive) | > 100 µM (inactive) | > 100 µM (inactive) | > 100 µM (inactive) | > 100 µM (inactive) | > 100 µM (inactive) | > 100 µM (inactive) | > 100 µM (inactive) | > 100 µM (inactive) | > 100 µM (inactive) | 
COC(=O)Cc1nn2c(nc1=O)sc1ccc3ccccc3c12 | > 100 µM (inactive) | 25.1 µM (inactive) | > 100 µM (inactive) |  | > 100 µM (inactive) |  | 67.3 µM (inactive) | > 100 µM (inactive) | > 100 µM (inactive) | > 100 µM (inactive) | > 100 µM (inactive) | > 100 µM (inactive) | > 100 µM (inactive) | > 100 µM (inactive) |  |  | > 100 µM (inactive) | 50.7 µM (inactive)
COC1(OC)CC2C=C(S(=O)(=O)c3ccccc3)C1N(Cc1ccccc1)C2=O (centres undefined) | 32.3 µM (inactive) | 34.8 µM (inactive) | 31 µM (inactive) | 26.6 µM (inactive) | 21 µM (inactive) | 20.2 µM (inactive) | 16.1 µM (inactive) | 91.4 µM (inactive) | 28.1 µM (inactive) | 22.6 µM (inactive) | 24.9 µM (inactive) | 37.2 µM (inactive) | 18.9 µM (inactive) | 15.2 µM (inactive) | 50.9 µM (inactive) |  | 88.1 µM (inactive) | 17.9 µM (inactive)
O=c1[nH]c(=O)n(COCc2ccccc2)c2ccccc12 | 27.7 µM (inactive) | 52.1 µM (inactive) | 91.4 µM (inactive) | 51.5 µM (inactive) | 47.9 µM (inactive) | 75 µM (inactive) | 95.3 µM (inactive) | 22.5 µM (inactive) | 31.9 µM (inactive) | > 100 µM (inactive) |  | 18.4 µM (inactive) | > 100 µM (inactive) |  | > 100 µM (inactive) |  | 89.9 µM (inactive) | 19.1 µM (inactive)
CCCc1c2c([nH]c(=O)c1C)C(=O)c1[nH]c(=O)c(C)c(CCC)c1C2=O | 3.29 µM (inactive) |  | 23.6 µM (inactive) | 73.8 µM (inactive) | > 100 µM (inactive) |  | 8.11 µM (inactive) |  | 4.75 µM (inactive) | 4.78 µM (inactive) | 3.73 µM (inactive) | 23.6 µM (inactive) | 1.66 µM (inactive) | 23.2 µM (inactive) | 47.6 µM (inactive) |  |  | 19.4 µM (inactive)
O=C(Cc1nc2ccccc2o1)C(=O)Nc1cccc(C(F)(F)F)c1 | > 100 µM (inactive) | > 100 µM (inactive) | > 100 µM (inactive) | > 100 µM (inactive) | > 100 µM (inactive) | > 100 µM (inactive) | > 100 µM (inactive) | > 100 µM (inactive) | > 100 µM (inactive) | > 100 µM (inactive) | > 100 µM (inactive) | > 100 µM (inactive) | > 100 µM (inactive) | > 100 µM (inactive) | > 100 µM (inactive) | > 100 µM (inactive) | > 100 µM (inactive) | 
COc1cc(/C=C\c2ccc(Br)cc2)cc(OC)c1OC | 0.000527 µM (active) | 0.000463 µM (active) | 0.1 µM (active) |  | 0.000463 µM (active) | 0.000404 µM (active) | 0.000811 µM (active) | 0.00385 µM (active) | 0.01 µM (active) | 0.000382 µM (active) | 0.0024 µM (active) | 0.0124 µM (active) | 0.000312 µM (active) | 0.000904 µM (active) | 0.000296 µM (active) | 0.000582 µM (active) | 58.2 µM (inactive) | 
CC[C@@H](C(=O)[C@@H](C)[C@@H](O)[C@H](C)CCc1ccc(C)c(O)c1C(=O)O)[C@H]1O[C@](CC)([C@H]2CC[C@](O)(CC)[C@H](C)O2)C[C@@H]1C [LASALOCID A SODIUM] | 1.66 µM (inactive) | 1.34 µM (inactive) | 1.3 µM (inactive) | 2.79 µM (inactive) | 1.15 µM (inactive) | 1.81 µM (inactive) | 2.77 µM (inactive) | 2.16 µM (inactive) | 1.06 µM (active) | 2.33 µM (inactive) | 1.05 µM (active) | 2.88 µM (inactive) | 3.31 µM (inactive) | 1.39 µM (inactive) | 1.56 µM (inactive) | 1.2 µM (inactive) | 2.92 µM (inactive) | 
